Laboratory results reported in ChEMBL document CHEMBL5584362, “Sucurchalasins A and B, Sulfur-Containing Heterodimers of a Cytochalasan and a Macrolide from the Endophytic Fungus Aspergillus spelaeus GDGJ-286” (J Nat Prod, 2024).
Values after ≈ are worked out from the molar mass of the structure shown.

What follows are compounds tested on A2780 (assay: Cytotoxicity against human A2780 cells by MTT assay). Conditions: not given.
Type: functional, cell-based

| SMILES | IC50 [µM] |
| --- | --- |
| C[C@H]1CC/C=C\CC(=O)c2c(O)cc(O)cc2CC(=O)O1 | > 20 |
| CC1=C[C@@H]2/C=C(\C)CCC(=O)[C@@H](O)/C=C/C(=O)[C@]23C(=O)N[C@@H](CC(C)C)[C@@H]3[C@@H]1C | > 20 |
| CC1=C[C@@H]2/C=C(\C)CC[C@@H](O)[C@@H](O)[C@H](O)CC(=O)[C@]23C(=O)N[C@@H](CC(C)C)[C@@H]3[C@@H]1C | > 20 |
| CC1=C[C@@H]2/C=C(\C)CC[C@H](O)[C@H](O)/C=C/C(=O)O[C@]23C(=O)N[C@@H](CC(C)C)[C@@H]3[C@@H]1C [ASPOCHALASIN I] | > 20 |
| C[C@H]1CCC(=O)CCC(=O)c2c(O)cc(O)cc2CC(=O)O1 | > 20 |

Each compound was assayed on SK-OV-3 (assay: Cytotoxicity against human SK-OV-3 cells by MTT assay). Conditions: not given.
Type: functional, cell-based

| SMILES | IC50 [µM] |
| --- | --- |
| C[C@H]1CC/C=C\CC(=O)c2c(O)cc(O)cc2CC(=O)O1 | > 20 |
| CC1=C[C@@H]2/C=C(\C)CCC(=O)[C@@H](O)/C=C/C(=O)[C@]23C(=O)N[C@@H](CC(C)C)[C@@H]3[C@@H]1C | > 20 |
| CC1=C[C@@H]2/C=C(\C)CC[C@@H](O)[C@@H](O)[C@H](O)CC(=O)[C@]23C(=O)N[C@@H](CC(C)C)[C@@H]3[C@@H]1C | > 20 |
| CC1=C[C@@H]2/C=C(\C)CC[C@H](O)[C@H](O)/C=C/C(=O)O[C@]23C(=O)N[C@@H](CC(C)C)[C@@H]3[C@@H]1C [ASPOCHALASIN I] | > 20 |
| C[C@H]1CCC(=O)CCC(=O)c2c(O)cc(O)cc2CC(=O)O1 | > 20 |

These compounds were tested on HeLa (assay: Cytotoxicity against human HeLa cells by MTT assay). Conditions: not given.
Type: functional, cell-based

| SMILES | IC50 [µM] |
| --- | --- |
| C[C@H]1CC/C=C\CC(=O)c2c(O)cc(O)cc2CC(=O)O1 | > 20 |
| CC1=C[C@@H]2/C=C(\C)CCC(=O)[C@@H](O)/C=C/C(=O)[C@]23C(=O)N[C@@H](CC(C)C)[C@@H]3[C@@H]1C | > 20 |
| CC1=C[C@@H]2/C=C(\C)CC[C@@H](O)[C@@H](O)[C@H](O)CC(=O)[C@]23C(=O)N[C@@H](CC(C)C)[C@@H]3[C@@H]1C | > 20 |
| CC1=C[C@@H]2/C=C(\C)CC[C@H](O)[C@H](O)/C=C/C(=O)O[C@]23C(=O)N[C@@H](CC(C)C)[C@@H]3[C@@H]1C [ASPOCHALASIN I] | > 20 |
| C[C@H]1CCC(=O)CCC(=O)c2c(O)cc(O)cc2CC(=O)O1 | > 20 |

What follows are compounds tested on HepG2 (assay: Cytotoxicity against human HepG2 cells by MTT assay). Conditions: not given.
Type: functional, cell-based

| SMILES | IC50 [µM] |
| --- | --- |
| C[C@H]1CC/C=C\CC(=O)c2c(O)cc(O)cc2CC(=O)O1 | > 20 |
| CC1=C[C@@H]2/C=C(\C)CCC(=O)[C@@H](O)/C=C/C(=O)[C@]23C(=O)N[C@@H](CC(C)C)[C@@H]3[C@@H]1C | > 20 |
| CC1=C[C@@H]2/C=C(\C)CC[C@@H](O)[C@@H](O)[C@H](O)CC(=O)[C@]23C(=O)N[C@@H](CC(C)C)[C@@H]3[C@@H]1C | > 20 |
| CC1=C[C@@H]2/C=C(\C)CC[C@H](O)[C@H](O)/C=C/C(=O)O[C@]23C(=O)N[C@@H](CC(C)C)[C@@H]3[C@@H]1C [ASPOCHALASIN I] | > 20 |
| C[C@H]1CCC(=O)CCC(=O)c2c(O)cc(O)cc2CC(=O)O1 | > 20 |

The compounds below were run on Shigella dysenteriae (assay: Antibacterial activity against Shigella dysenteriae measured after 20 to 45 mins by broth microdilution method). Conditions: time 20-45 min.
Type: functional

| SMILES | MIC [µg/mL] |
| --- | --- |
| C[C@H]1CC/C=C\CC(=O)c2c(O)cc(O)cc2CC(=O)O1 | > 25 |
| CC1=C[C@@H]2/C=C(\C)CCC(=O)[C@@H](O)/C=C/C(=O)[C@]23C(=O)N[C@@H](CC(C)C)[C@@H]3[C@@H]1C | > 25 |
| CC1=C[C@@H]2/C=C(\C)CC[C@@H](O)[C@@H](O)[C@H](O)CC(=O)[C@]23C(=O)N[C@@H](CC(C)C)[C@@H]3[C@@H]1C | > 25 |
| CC1=C[C@@H]2/C=C(\C)CC[C@H](O)[C@H](O)/C=C/C(=O)O[C@]23C(=O)N[C@@H](CC(C)C)[C@@H]3[C@@H]1C [ASPOCHALASIN I] | > 25 |
| O=C(O)c1cn(C2CC2)c2cc(N3CCNCC3)c(F)cc2c1=O [CIPROFLOXACIN] | 1.6 (≈ 4.83 µM) |
| C[C@H]1CCC(=O)CCC(=O)c2c(O)cc(O)cc2CC(=O)O1 | > 25 |

These compounds were tested on Enterococcus faecalis (assay: Antibacterial activity against Enterococcus faecalis measured after 20 to 45 mins by broth microdilution method). Conditions: time 20-45 min.
Type: functional

| SMILES | MIC [µg/mL] |
| --- | --- |
| C[C@H]1CC/C=C\CC(=O)c2c(O)cc(O)cc2CC(=O)O1 | > 25 |
| CC1=C[C@@H]2/C=C(\C)CCC(=O)[C@@H](O)/C=C/C(=O)[C@]23C(=O)N[C@@H](CC(C)C)[C@@H]3[C@@H]1C | > 25 |
| CC1=C[C@@H]2/C=C(\C)CC[C@@H](O)[C@@H](O)[C@H](O)CC(=O)[C@]23C(=O)N[C@@H](CC(C)C)[C@@H]3[C@@H]1C | > 25 |
| CC1=C[C@@H]2/C=C(\C)CC[C@H](O)[C@H](O)/C=C/C(=O)O[C@]23C(=O)N[C@@H](CC(C)C)[C@@H]3[C@@H]1C [ASPOCHALASIN I] | > 25 |
| O=C(O)c1cn(C2CC2)c2cc(N3CCNCC3)c(F)cc2c1=O [CIPROFLOXACIN] | 1.6 (≈ 4.83 µM) |
| C[C@H]1CCC(=O)CCC(=O)c2c(O)cc(O)cc2CC(=O)O1 | > 25 |

The compounds below were run on Bacillus subtilis (assay: Antibacterial activity against Bacillus subtilis measured after 20 to 45 mins by broth microdilution method). Conditions: time 20-45 min.
Type: functional

| SMILES | MIC [µg/mL] |
| --- | --- |
| C[C@H]1CC/C=C\CC(=O)c2c(O)cc(O)cc2CC(=O)O1 | > 25 |
| CC1=C[C@@H]2/C=C(\C)CCC(=O)[C@@H](O)/C=C/C(=O)[C@]23C(=O)N[C@@H](CC(C)C)[C@@H]3[C@@H]1C | > 25 |
| CC1=C[C@@H]2/C=C(\C)CC[C@@H](O)[C@@H](O)[C@H](O)CC(=O)[C@]23C(=O)N[C@@H](CC(C)C)[C@@H]3[C@@H]1C | > 25 |
| CC1=C[C@@H]2/C=C(\C)CC[C@H](O)[C@H](O)/C=C/C(=O)O[C@]23C(=O)N[C@@H](CC(C)C)[C@@H]3[C@@H]1C [ASPOCHALASIN I] | > 25 |
| O=C(O)c1cn(C2CC2)c2cc(N3CCNCC3)c(F)cc2c1=O [CIPROFLOXACIN] | 1.6 (≈ 4.83 µM) |
| C[C@H]1CCC(=O)CCC(=O)c2c(O)cc(O)cc2CC(=O)O1 | > 25 |

Each compound was assayed on Vibrio parahaemolyticus (assay: Antibacterial activity against Vibrio parahaemolyticus measured after 20 to 45 mins by broth microdilution method). Conditions: time 20-45 min.
Type: functional

| SMILES | MIC [µg/mL] |
| --- | --- |
| C[C@H]1CC/C=C\CC(=O)c2c(O)cc(O)cc2CC(=O)O1 | > 25 |
| CC1=C[C@@H]2/C=C(\C)CCC(=O)[C@@H](O)/C=C/C(=O)[C@]23C(=O)N[C@@H](CC(C)C)[C@@H]3[C@@H]1C | > 25 |
| CC1=C[C@@H]2/C=C(\C)CC[C@@H](O)[C@@H](O)[C@H](O)CC(=O)[C@]23C(=O)N[C@@H](CC(C)C)[C@@H]3[C@@H]1C | > 25 |
| CC1=C[C@@H]2/C=C(\C)CC[C@H](O)[C@H](O)/C=C/C(=O)O[C@]23C(=O)N[C@@H](CC(C)C)[C@@H]3[C@@H]1C [ASPOCHALASIN I] | > 25 |
| O=C(O)c1cn(C2CC2)c2cc(N3CCNCC3)c(F)cc2c1=O [CIPROFLOXACIN] | 3.1 (≈ 9.36 µM) |
| C[C@H]1CCC(=O)CCC(=O)c2c(O)cc(O)cc2CC(=O)O1 | > 25 |

What follows are compounds tested on Staphylococcus aureus (assay: Antibacterial activity against Staphylococcus aureus measured after 20 to 45 mins by broth microdilution method). Conditions: time 20-45 min.
Type: functional

| SMILES | MIC [µg/mL] |
| --- | --- |
| C[C@H]1CC/C=C\CC(=O)c2c(O)cc(O)cc2CC(=O)O1 | > 25 |
| CC1=C[C@@H]2/C=C(\C)CCC(=O)[C@@H](O)/C=C/C(=O)[C@]23C(=O)N[C@@H](CC(C)C)[C@@H]3[C@@H]1C | > 25 |
| CC1=C[C@@H]2/C=C(\C)CC[C@@H](O)[C@@H](O)[C@H](O)CC(=O)[C@]23C(=O)N[C@@H](CC(C)C)[C@@H]3[C@@H]1C | > 25 |
| CC1=C[C@@H]2/C=C(\C)CC[C@H](O)[C@H](O)/C=C/C(=O)O[C@]23C(=O)N[C@@H](CC(C)C)[C@@H]3[C@@H]1C [ASPOCHALASIN I] | > 25 |
| O=C(O)c1cn(C2CC2)c2cc(N3CCNCC3)c(F)cc2c1=O [CIPROFLOXACIN] | 1.6 (≈ 4.83 µM) |
| C[C@H]1CCC(=O)CCC(=O)c2c(O)cc(O)cc2CC(=O)O1 | > 25 |

The compounds below were run on Escherichia coli (assay: Antibacterial activity against Escherichia coli measured after 20 to 45 mins by broth microdilution method). Conditions: time 20-45 min.
Type: functional

| SMILES | MIC [µg/mL] |
| --- | --- |
| C[C@H]1CC/C=C\CC(=O)c2c(O)cc(O)cc2CC(=O)O1 | > 25 |
| CC1=C[C@@H]2/C=C(\C)CCC(=O)[C@@H](O)/C=C/C(=O)[C@]23C(=O)N[C@@H](CC(C)C)[C@@H]3[C@@H]1C | > 25 |
| CC1=C[C@@H]2/C=C(\C)CC[C@@H](O)[C@@H](O)[C@H](O)CC(=O)[C@]23C(=O)N[C@@H](CC(C)C)[C@@H]3[C@@H]1C | > 25 |
| CC1=C[C@@H]2/C=C(\C)CC[C@H](O)[C@H](O)/C=C/C(=O)O[C@]23C(=O)N[C@@H](CC(C)C)[C@@H]3[C@@H]1C [ASPOCHALASIN I] | > 25 |
| O=C(O)c1cn(C2CC2)c2cc(N3CCNCC3)c(F)cc2c1=O [CIPROFLOXACIN] | 1.6 (≈ 4.83 µM) |
| C[C@H]1CCC(=O)CCC(=O)c2c(O)cc(O)cc2CC(=O)O1 | > 25 |

The compounds below were run on Salmonella typhi (assay: Antibacterial activity against Salmonella typhi measured after 20 to 45 mins by broth microdilution method). Conditions: Salmonella enterica; time 20-45 min.
Type: functional, Salmonella enterica subsp. enterica serovar Typhi

| SMILES | MIC [µg/mL] |
| --- | --- |
| C[C@H]1CC/C=C\CC(=O)c2c(O)cc(O)cc2CC(=O)O1 | > 25 |
| CC1=C[C@@H]2/C=C(\C)CCC(=O)[C@@H](O)/C=C/C(=O)[C@]23C(=O)N[C@@H](CC(C)C)[C@@H]3[C@@H]1C | > 25 |
| CC1=C[C@@H]2/C=C(\C)CC[C@@H](O)[C@@H](O)[C@H](O)CC(=O)[C@]23C(=O)N[C@@H](CC(C)C)[C@@H]3[C@@H]1C | > 25 |
| CC1=C[C@@H]2/C=C(\C)CC[C@H](O)[C@H](O)/C=C/C(=O)O[C@]23C(=O)N[C@@H](CC(C)C)[C@@H]3[C@@H]1C [ASPOCHALASIN I] | > 25 |
| O=C(O)c1cn(C2CC2)c2cc(N3CCNCC3)c(F)cc2c1=O [CIPROFLOXACIN] | 1.6 (≈ 4.83 µM) |
| C[C@H]1CCC(=O)CCC(=O)c2c(O)cc(O)cc2CC(=O)O1 | > 25 |
